Values joined by “and” are separate entries in the source; they are usually repeats but may differ in a detail not shown here. Equal entries are not always repeated. Structures can show the parent of a compound that is named as a salt. Where two headings read alike, the source gives them in different places.
How the values were obtained:
[1] = tested on: HCoV-OC43 (Betacoronavirus 1); assay: microbe, parasite or virus in culture; type: cell-based; details: for EC50: read-out: Efficacy
[2] = in vitro; details: human
[3] = tested on: H292 cells (NCI-H292); assay: Cytotoxicity in uninfected H292 cells (MTT)
[4] = tested on: Huh-7 cells; assay: Cytotoxicity / viability of uninfected Huh-7 cells (XTT); details: for Viability of Huh-7 Cells (A490): 6 days, individual raw data; for Viability (A490): cytotoxic control, raw data, Huh-7
[5] = tested on: HCoV-OC43; assay: OC43 CPE assay in Huh-7 cells (neutral red uptake); type: cell-based, Human coronavirus OC43; details: for Raw OD - Absorbance 490 nm: infected Huh-7, neutral red uptake, individual replicate; for EC50: Betacoronavirus 1, OC43, 144 h, 6 days, neutral red uptake
[6] = in vitro; details: human; remark: listed apart in the source
[7] = tested on: alpha coronavirus 229E (CoV-229E); assay: Inhibition of CoV-229E-induced CPE in MRC-5 cells (XTT); details: CPE reduction, CoV-229E in MRC-5 cells, 6 days
[8] = Cytotoxicity / viability of uninfected Huh-7 cells (XTT); details: human, uninfected Huh-7 cells
[9] = Betacoronavirus 1, NCI-H292, 144 h, EC50, HCoV-OC43-infected H292 cells, MTT, 6 days
[10] = Betacoronavirus 1, OC43, Huh-7, 0.01 μM, average ± SD of duplicates, read-out: Inhibition of OC43 Virus-Induced CPE in Huh-7 Cells
[11] = Betacoronavirus 1, OC43, Huh-7, 0.04 μM, average ± SD of duplicates, read-out: Inhibition of OC43 Virus-Induced CPE in Huh-7 Cells
[12] = Betacoronavirus 1, OC43, Huh-7, 0.12 μM, average ± SD of duplicates, read-out: Inhibition of OC43 Virus-Induced CPE in Huh-7 Cells
[13] = Betacoronavirus 1, OC43, Huh-7, 0.4 μM, average ± SD of duplicates, read-out: Inhibition of OC43 Virus-Induced CPE in Huh-7 Cells
[14] = Betacoronavirus 1, OC43, Huh-7, 1.1 μM, average ± SD of duplicates, read-out: Inhibition of OC43 Virus-Induced CPE in Huh-7 Cells
[15] = Betacoronavirus 1, OC43, Huh-7, 10 μM, average ± SD of duplicates, read-out: Inhibition of OC43 Virus-Induced CPE in Huh-7 Cells
[16] = Betacoronavirus 1, OC43, Huh-7, 30 μM, average ± SD of duplicates, read-out: Inhibition of OC43 Virus-Induced CPE in Huh-7 Cells
[17] = CC50, uninfected H292 cells, MTT, 6 days
[18] = Betacoronavirus 1, OC43, NCI-H292, 144 h

CCN(CC)CCNC(=O)c1c(C)[nH]c(/C=C2\C(=O)Nc3ccc(F)cc32)c1C [Sunitinib]
EC50 [1, 9]: 0.406 µM | CC50 at 6 days ([2]; uninfected MRC-5 cells): 1320 nM | Cytotoxicity [3]: 10 to 50 µM

COc1ncccc1-c1cnn2ccc(N3CCN(C(=O)OC4(C)COC4)CC3)nc12 [Compound 1, 3-methyloxetan-3-yl-4-(3-(2-methoxypyridin-3-yl)pyrazolo[1,5-a]pyrimidin-5-yl)piperazine-1-carboxylate]
EC50 [1, 9]: 9.31 µM | antiviral effect against β-coronavirus OC43 in H292 cells ([1]; 6 days): significant antiviral effect | viability of infected H292 cells ([1]; HCoV-OC43 infected, FIG. 6): increased with increased concentrations | Viability of Huh-7 Cells (A490) ([4]; 0.01 μM, XTT, listed as Compd. 1): 0.724 and 0.716 | Viability of Huh-7 Cells (A490) ([4]; 0.04 μM, XTT, listed as Compd. 1): 0.748 and 0.941 | Viability of Huh-7 Cells (A490) ([4]; 0.12 μM, XTT, listed as Compd. 1): 0.673 and 0.691 | Viability of Huh-7 Cells (A490) ([4]; 0.37 μM, XTT, listed as Compd. 1): 0.675 and 0.654 | Viability of Huh-7 Cells (A490) ([4]; 1.1 μM, XTT, listed as Compd. 1): 0.758 and 0.786 | Viability of Huh-7 Cells (A490) ([4]; 3.3 μM, XTT, listed as Compd. 1): 0.807 and 0.850 | Viability of Huh-7 Cells (A490) ([4]; 10 μM, XTT, listed as Compd. 1): 0.878 and 0.834 | Viability of Huh-7 Cells (A490) ([4]; 30 μM, XTT, listed as Compd. 1): 0.844 and 0.792 | Viability of Huh-7 Cells (A490) ([4]; 90 μM, XTT, listed as Compd. 1): 0.421 and 0.469 | Raw OD - Absorbance 490 nm ([5]; 0.01 μM, listed as Compd. 1): 0.102 and 0.108 | Raw OD - Absorbance 490 nm ([5]; 0.04 μM, listed as Compd. 1): 0.100 and 0.097 | Raw OD - Absorbance 490 nm ([5]; 0.12 μM, listed as Compd. 1): 0.092 and 0.094 | Raw OD - Absorbance 490 nm ([5]; 0.4 μM, listed as Compd. 1): 0.087 and 0.096 | Raw OD - Absorbance 490 nm ([5]; 1.1 μM, listed as Compd. 1): 0.102 and 0.104 | Raw OD - Absorbance 490 nm ([5]; 3.3 μM, listed as Compd. 1): 0.105 and 0.103 | Raw OD - Absorbance 490 nm ([5]; 10 μM, listed as Compd. 1): 0.115 and 0.117 | antiviral effect at 30 μM ([5]; 30 μM, Huh-7 cells, likely due to compound-induced toxicity): disappeared | Raw OD - Absorbance 490 nm ([5]; 30 μM, listed as Compd. 1): 0.076 and 0.072 | EC50 ([5]; Huh-7 cells): > 30 µM | inhibition at 0.01 µM [5, 10]: -0.2 ± 0.6% | inhibition at 0.04 µM [5, 11]: -0.8 ± 0.4% | inhibition at 0.12 µM [5, 12]: -1.7 ± 0.2% | inhibition at 0.4 µM [5, 13]: -1.9 ± 0.8% | inhibition at 1.1 µM [5, 14]: -0.2 ± 0.2% | inhibition at 3.3 µM ([5]; Betacoronavirus 1, OC43, Huh-7, 3.3 μM, average ± SD of duplicates, read-out: Inhibition of OC43 Virus-Induced CPE in Huh-7 Cells): 0% | inhibition at 10 µM [5, 15]: 1.8 ± 0.3% | inhibition at 30 µM [5, 16]: -4.5 ± 0.5% | viability at 6 days, 0.01 µM [6]: 96.9 ± 0.8% | viability at 6 days, 0.04 µM [6]: 100.4 ± 0.7% | viability at 6 days, 0.12 µM [6]: 91.4 ± 1.8% | viability at 6 days, 0.37 µM [6]: 88.8 ± 2.2% | viability at 6 days, 1.1 µM [6]: 104 ± 2.9% | viability at 6 days, 3.3 µM [6]: 113 ± 4.4% | viability at 6 days, 10 µM [6]: 117 ± 4.5% | viability at 6 days, 30 µM [6]: 111 ± 5.3% | viability at 6 days, 90 µM [6]: 57.1 ± 4.9% | Cytotoxicity [3, 17]: >300 µM | viability of uninfected H292 cells ([3]; with increased concentrations, FIG. 6): did not change significantly | EC50 [7]: > 10000 nM

CCN(CC)CCCC(C)Nc1ccnc2cc(Cl)ccc12 (stereo not drawn) [Chloroquine]
EC50 [1, 18]: 0.4 µM | antiviral effect against β-coronavirus OC43 in H292 cells ([1]; 6 days): antiviral effect | prevention of virus-induced CPE ([5]; 6-day assay, Huh-7 cells): potently prevented the virus-induced CPE | inhibition at 5 µM ([5]; Betacoronavirus 1, OC43, Huh-7, read-out: Inhibition of OC43 Virus-Induced CPE in Huh-7 Cells, 5 μM, control inhibitor, relative to uninfected cells (mock)): ~88% | Cytotoxicity [3, 17]: 46.04 µM | EC50 [7]: 490 nM

CC[C@H]1CN2CCc3cc(OC)c(OC)cc3[C@@H]2C[C@@H]1C[C@H]1NCCc2cc(OC)c(OC)cc21 [Emetine]
Viability (A490) ([4]; 1 μm): 0.176 and 0.179 | Viability (A490) ([4]; 5 μm): 0.104 and 0.111 | inhibition of cell viability ([4]; tested at 5 μM, XTT): more than 90% | cytotoxicity at 6 days, 5 μM [8]: > 90% | viability at 6 days, 1 µM [8]: 18.3 ± 0.3% | viability at 6 days, 5 µM [8]: 8.2 ± 0.7%

CCN(CC)CCNC(=O)c1c(C)[nH]c(/C=C2\C(=O)Nc3ccc(F)cc32)c1C [Sunitinib maleate, sunitinib malate]
Viability of Huh-7 Cells (A490) ([4]; 0.01 μM, XTT): 0.721 and 0.651 | Viability of Huh-7 Cells (A490) ([4]; 0.04 μM, XTT): 0.738 and 0.751 | Viability of Huh-7 Cells (A490) ([4]; 0.12 μM, XTT): 0.719 and 0.752 | Viability of Huh-7 Cells (A490) ([4]; 0.37 μM, XTT): 0.732 and 0.765 | Viability of Huh-7 Cells (A490) ([4]; 1.1 μM, XTT): 0.676 and 0.665 | Viability of Huh-7 Cells (A490) ([4]; 3.3 μM, XTT): 0.642 and 0.601 | Viability of Huh-7 Cells (A490) ([4]; 10 μM, XTT): 0.543 and 0.554 | Viability of Huh-7 Cells (A490) ([4]; 30 μM, XTT): 0.058 and 0.055 | Viability of Huh-7 Cells (A490) ([4]; 90 μM, XTT): 0.053 and 0.054 | Raw OD - Absorbance 490 nm ([5]; 0.01 μM): 0.120 | Raw OD - Absorbance 490 nm ([5]; 0.04 μM): 0.094 | Raw OD - Absorbance 490 nm ([5]; 0.4 μM): 0.086 and 0.090 | Raw OD - Absorbance 490 nm ([5]; 1.1 μM): 0.094 | Raw OD - Absorbance 490 nm ([5]; 3.3 μM): 0.312 and 0.136 | Raw OD - Absorbance 490 nm ([5]; 10 μM): 0.214 and 0.280 | Raw OD - Absorbance 490 nm ([5]; 30 μM): 0.051 and 0.053 | EC50 ([5]; Huh-7 cells): > 30 µM | inhibition at 3.3 µM ([5]; Betacoronavirus 1, OC43, Huh-7, read-out: Inhibition of OC43 Virus-Induced CPE in Huh-7 Cells): 17.9 ± 18.5% | inhibition at 0.01 µM [5, 10]: 1.1 ± 1.9% | inhibition at 0.04 µM [5, 11]: -1.2 ± 0.4% | inhibition at 0.12 µM [5, 12]: -0.1 ± 0.4% | inhibition at 0.4 µM [5, 13]: -2.4 ± 0.4% | inhibition at 1.1 µM [5, 14]: -1 ± 0.8% | inhibition at 10 µM [5, 15]: 21.4 ± 7% | inhibition at 30 µM [5, 16]: -7.8 ± 0.2% | CC50 at 6 days [6]: 13 µM | viability at 6 days, 0.01 µM [6]: 92 ± 7.2% | viability at 6 days, 0.04 µM [6]: 100 ± 1.3% | viability at 6 days, 0.12 µM [6]: 99.1 ± 3.4% | viability at 6 days, 0.37 µM [6]: 101 ± 3.4% | viability at 6 days, 1.1 µM [6]: 89.7 ± 1.1% | viability at 6 days, 3.3 µM [6]: 82.6 ± 4.2% | viability at 6 days, 10 µM [6]: 72 ± 1.1% | viability at 6 days, 30 µM [6]: 0.8 ± 0.3% | viability at 6 days, 90 µM [6]: 0.4 ± 0.1%

CCC(CC)COC(=O)[C@H](C)N[P@](=O)(OC[C@H]1O[C@@](C#N)(c2ccc3c(N)ncnn23)[C@H](O)[C@@H]1O)Oc1ccccc1 [Remdesivir]
EC50 [1, 18]: 37.5 µM | CC50 at 6 days [2]: > 2000 nM | Cytotoxicity [3, 17]: >20 µM | EC50 [7]: 130 nM
